Like-named read-outs stand apart in the source and are kept apart here. Each block holds one compound with its values, some of them ahead of it.
How the values were obtained:
[1] = tested on: Aedes aegypti mosquitoes; experiment: Drug effect on mosquito fecundity (eggs laid after 96 h); assay type: in vivo; conditions: 4 days; IVM 0.1, KCZ 5, RIF 10, RTV 10, PBO 10 μg/ml in blood; 50 mosquitoes
Description: The mixtures were rotated at room temperature for 30 min to ensure a uniform drug distribution (Rotator Genie, Scientific Industries, Bohemia, USA). […] Twelve hours later, the tap water was also removed to starve the mosquitoes. […] The mosquitoes were then feeding from blood through the netting and the Parafilm membrane. […] The photoperiod of the climate chamber and the insectary were synchronised. […] The engorged mosquitoes were either directly frozen at -20°C or returned to the climate chamber for certain time periods to assess the PK. […] Blood feeding was done as described above. […] In contrast to the PK experiments, the mosquitoes had unlimited access to water because a moistened oviposition substrate was inserted into the paper cup. Fecundity was defined as the total number of eggs laid after 96 h. […] The filter paper served as the oviposition substrate. The cotton wool was soaked with fresh water and covered by a new filter paper after 48, 72, and 96 h post-treatment. After the assay, the eggs were left to mature for 24 h in the insectary. […] R Foundation for Statistical Computing, http://www.R-project.org, Vienna, Austria). Normality was assessed using the Shapiro-Wilk test. For normally distributed data (mortality, fecundity), group differences were assessed with one-way ANOVA testing, and, where applicable, followed up with Tukey's test. Group differences in fertility (not normally distributed) were evaluated with Kruskal-Wallis one-way analysis of variance, and Wilcoxon rank sum testing as post-hoc.

[2] = tested on: Aedes aegypti mosquitoes; experiment: Drug effect on mosquito fertility (percentage of eggs hatched); assay type: in vivo; conditions: 100 eggs laid 48-96 h post-treatment; IVM 0.1, KCZ 5, RIF 10, RTV 10, PBO 10 μg/ml in blood
Description: The mixtures were rotated at room temperature for 30 min to ensure a uniform drug distribution (Rotator Genie, Scientific Industries, Bohemia, USA). […] Twelve hours later, the tap water was also removed to starve the mosquitoes. […] The mosquitoes were then feeding from blood through the netting and the Parafilm membrane. […] The photoperiod of the climate chamber and the insectary were synchronised. […] The engorged mosquitoes were either directly frozen at -20°C or returned to the climate chamber for certain time periods to assess the PK. […] Blood feeding was done as described above. […] In contrast to the PK experiments, the mosquitoes had unlimited access to water because a moistened oviposition substrate was inserted into the paper cup. […] Any hatched larva was counted and transferred to a rearing tray with a plastic pipette. The fertility was calculated as the percentage of eggs hatched. […] R Foundation for Statistical Computing, http://www.R-project.org, Vienna, Austria). Normality was assessed using the Shapiro-Wilk test. For normally distributed data (mortality, fecundity), group differences were assessed with one-way ANOVA testing, and, where applicable, followed up with Tukey's test. Group differences in fertility (not normally distributed) were evaluated with Kruskal-Wallis one-way analysis of variance, and Wilcoxon rank sum testing as post-hoc.

[3] = Pharmacokinetic and drug-drug interaction studies in blood-fed mosquitoes (concentration-time courses, population PK modelling); conditions: for Course / extent of elimination from the mosquitoes: IVM 0.1, KCZ 5, RIF 10, PBO 10 μg/ml in blood, up to 72 h; for Type of elimination kinetics in the mosquito: IVM 0.1, KCZ 5, RIF 10, RTV 10, PBO 10 μg/ml in blood; for Effect of the co-administered CYP modulator on the PK of ivermectin: ivermectin 0.1 μg/ml plus KCZ 5, RIF 10, RTV 10 or PBO 10 μg/ml in blood, 72 h
[4] = tested on: Aedes aegypti mosquitoes; conditions: IVM 0.1, KCZ 5, RIF 10, RTV 10, PBO 10 μg/ml in blood, 50 mosquitoes

SMILES: CC(=O)N1CCN(c2ccc(OCC3COC(Cn4ccnc4)(c4ccc(Cl)cc4Cl)O3)cc2)CC1 (stereo not shown) [ketoconazole]
Mosquito fecundity, Batch 1, mg eggs (4 days) [1]: 30.30 mg eggs
Mosquito fecundity, Batch 2, mg eggs (4 days) [1]: 22.14 mg eggs
Mosquito fecundity, Batch 3, mg eggs (4 days) [1]: 33.56 mg eggs
Mosquito fertility, Batch 1, hatching rate [2]: 60%
Mosquito fertility, Batch 2, hatching rate [2]: 73%
Mosquito fertility, Batch 3, hatching rate [2]: 82%
Course / extent of elimination from the mosquitoes [3]: only few samples could be quantified 36 h post-feeding
Type of elimination kinetics in the mosquito [3]: first order elimination
concentration at 0 h ([3]; female, Aedes aegypti, in vivo, CYP modulator concentration (ng/mg mosquito), Treatment KCZ + IVM (5 µg/ml KCZ, 0.1 µg/ml IVM), Batch 1, 0 h post feeding, single mosquitoes 1-20): 639 ng/g
concentration at 72 h ([3]; female, Aedes aegypti, in vivo, CYP modulator concentration (ng/mg mosquito), Treatment KCZ + IVM (5 µg/ml KCZ, 0.1 µg/ml IVM), Batch 1, 72 h post feeding, single mosquitoes 1-20): 0 ng/g
Effect of the co-administered CYP modulator on the PK of ivermectin [3]: not altered
Effect of the co-administered CYP modulator on the PK of ivermectin ([3]; listed as Ketoconazole): No effect
Share of the dose excreted after 6 h ([3]; ketoconazole 5 μg/ml with ivermectin 0.1 μg/ml in blood): 75%

SMILES: CCCCOCCOCCOCc1cc2c(cc1CCC)OCO2 [piperonyl butoxide]
Mosquito fecundity, Batch 1, mg eggs (4 days) [1]: 32.86 mg eggs
Mosquito fecundity, Batch 2, mg eggs (4 days) [1]: 20.66 mg eggs
Mosquito fecundity, Batch 3, mg eggs (4 days) [1]: 35.34 mg eggs
Mosquito fertility, Batch 1, hatching rate [2]: 81%
Mosquito fertility, Batch 2, hatching rate [2]: 71%
Mosquito fertility, Batch 3, hatching rate [2]: 86%

SMILES: CO[C@H]1/C=C/O[C@@]2(C)Oc3c(C)c(O)c4c(O)c(c(/C=N/N5CCN(C)CC5)c(O)c4c3C2=O)NC(=O)/C(C)=C\C=C\[C@H](C)[C@H](O)[C@@H](C)[C@@H](O)[C@@H](C)[C@H](OC(C)=O)[C@@H]1C [rifampicin]
Mosquito fecundity, Batch 1, mg eggs (4 days) [1]: 32.99 mg eggs
Mosquito fecundity, Batch 2, mg eggs (4 days) [1]: 21.40 mg eggs
Mosquito fecundity, Batch 3, mg eggs (4 days) [1]: 36.14 mg eggs
Mosquito fertility, Batch 1, hatching rate [2]: 83%
Mosquito fertility, Batch 2, hatching rate [2]: 78%
Mosquito fertility, Batch 3, hatching rate [2]: 79%
Mosquito survival (%) ([4]; 0 days post feeding): 100%
Mosquito survival (%) ([4]; 1 day post feeding): 100%
Course / extent of elimination from the mosquitoes [3]: almost not eliminated during the first 2 days
Type of elimination kinetics in the mosquito [3]: accumulated over days
Tmax ([3]; female, Aedes aegypti, in vivo): ~36 h

concentration at 0 h ([3]; female, Aedes aegypti, whole mosquito (whole-body extract), oral, CYP modulator concentration (ng/mg mosquito), Treatment RTV + IVM (10 µg/ml RTV, 0.1 µg/ml IVM), Batch 3, 0 h post feeding, single mosquitoes 1-20): 4230 ng/g
SMILES: CC(C)c1nc(CN(C)C(=O)N[C@H](C(=O)N[C@@H](Cc2ccccc2)C[C@H](O)[C@H](Cc2ccccc2)NC(=O)OCc2cncs2)C(C)C)cs1 [ritonavir]
Mosquito fecundity, Batch 1, mg eggs (4 days) [1]: 38.37 mg eggs
Mosquito fecundity, Batch 2, mg eggs (4 days) [1]: 21.29 mg eggs
Mosquito fecundity, Batch 3, mg eggs (4 days) [1]: 33.90 mg eggs
Mosquito fertility, Batch 1, hatching rate [2]: 87%
Mosquito fertility, Batch 2, hatching rate [2]: 74%
Mosquito fertility, Batch 3, hatching rate [2]: 83%

— publication PMC7968666, “The pharmacokinetics and drug-drug interactions of ivermectin in Aedes aegypti mosquitoes” (PLoS Pathogens, 2021)
